Read-outs that look alike come from different tables or passages of the source. Some results are limits rather than exact numbers.

For assay [1], the system named is E. multilocularis metacestodes (isolate Sval). Kind of assay: PGI assay (damage marker release), metacestodes, isolate Sval. To be noted: isolate Sval, 10 μM. It counts as cell-based, Echinococcus multilocularis. As to the method: To assess the in vitro efficacy of ELQs against E. multilocularis, (a) the damage-marker phosphoglucose isomerase (PGI) assay was applied against metacestodes, and (b) the germinal layer (GL) cell viability assay was applied to measure effects on isolated GL cells. Both assays are described in more detail below. The drug testing strategy was as follows: PGI assay was first conducted for overview screening at 10 μM with the parasite isolates H95 and Sval. The GL cell viability assay was performed at 0.1 μM with both isolates H95 and Sval.
The PGI assay measures the amount of PGI that metacestodes release into the medium when damaged ([17], [32]). The purification and in vitro drug incubation of E. multilocularis metacestodes was conducted according to Stadelmann et al. ([32]). In short, cultures were applied for in vitro drug testing at the age of 6-8 weeks. E. multilocularis metacestodes were therefore purified by the addition of 2% saccharose and washed extensively with PBS. Purified metacestodes were suspended 1:3 with DMEM (without phenol red, supplemented with 100 U/mL penicillin, 100 μg/mL streptomycin) and distributed in 48-well plates (1 mL/well, thus 300 μL pure metacestode vesicles per well). […] The corresponding DMSO concentration was used as negative control and Tx-100 (0.1% final concentration) was used for total damage (positive control). […] After 5 days, relative PGI activities were measured and calculated as percentage of the Tx-100 control as described previously in Rufener et al. ([17]). They were calculated as mean values and standard deviations for each triplicate. […] EC50 measurements were performed twice, and averages and standard deviations of these repeated tests are given.

Assay [2] concerns Reuber rat hepatoma (Rh) cells. Kind of assay: Mammalian cell toxicity, Alamar Blue assay. Type of assay: cell-based. The conditions noted are these: Alamar blue, 5 days, range tested 30–0.23 μM, mean (SD) of two tests. As to the method:
Compounds were added in a serial dilution (30–0.23 μM, 1:2 dilution steps) and in triplicates. Plates were incubated at 37°C, 5% CO2 and humid atmosphere for 5 days. Resazurin was added to a final concentration of 10 mg/L to each well, and fluorescence measured at 530 nm on an Enspire multilabel plate reader over 3 h. By using Microsoft Office Excel 2010 and a logit-log transformation of the relative growth, IC50 values were calculated. The test was performed twice for each compound, and respective averages and standard deviations are given.
A general note: Alamar Blue is a resazurin reagent that responds to reducing activity.

The subject of assay [3] is mitochondrial bc1 complex of E. multilocularis GL cells. The assay is described as follows: Seahorse oxygen consumption rate assay. Type of assay: cell-based, Echinococcus multilocularis. The conditions noted are these: 1 μM; succinate as initial electron donor; restored by ascorbate/TMPD, not by succinate or glycerol 3-phosphate. As for the experimental part:
To measure effects of ELQ-400 on the oxygen consumption rate (OCR), Seahorse assay was conducted according to the method established by Rufener et al. ([17]) and according to the manual for Seahorse XFp Extracellular Flux Analyzer (Agilent Technologies, Bucher Biotec, Basel, Switzerland). E. multilocularis GL cells were isolated and prepared the day before. Cells were centrifuged and resuspended in Mitochondrial Assay Solution (MAS) solution (220 mM mannitol, 70 mM sucrose, 10 mM KH2PO4, 5 mM MgCl2, 2 mM HEPES, and 1 mM EGTA pH 7.2). This cell suspension was centrifuged again and the pellet was resuspended in assay-buffer (MAS, 10 mM succinate, 2 μM rotenone, 4 mM ADP, and 3.6 nM PMP). 100 units of GL cells were distributed to each well of a Seahorse XFp miniplate (Agilent Technologies) pre-coated with CellTak according to the instruction manual (Fisher Scientific, Schwerte, Germany). Two wells were used as blanks with assay buffer without cells. ELQ-400 (1 μM) was diluted in MAS solution and loaded to the delivery ports of the sensor cartridge of the first injection (or DMSO as a control). In the second injection, succinate (10 mM), glycerol 3-phosphate (10 mM), or ascorbate (20 mM) with TMPD (0.6 mM) was added. […] Each drug setup was tested in triplicates and the read-out and analysis was done using the software Wave (Agilent Technologies, Bucher Biotec, Basel, Switzerland). […]

On to `Cc1[nH]c2cc(F)cc(F)c2c(=O)c1-c1ccc(Oc2ccc(OC(F)(F)F)cc2)cc1` [ELQ-400], for which the “Metacestodes, PGI assay, relative to positive control Tx-100” value in assay [1] (5 days, normoxic, mean (SD) of triplicates, active if >20%) was 27 (10.5) %. Also, the “Activity in PGI assay (activity call)” value in assay [1] (threshold >20% of Tx-100) is listed as “activity”. Also, the 50% inhibitory concentration (IC50) was greater than 30 µM in assay [2] (confluent Rh cells, read-out: IC50 Rh confluent) and 1.46 µM in assay [2] (preconfluent Rh cells, read-out: IC50 Rh preconfluent). Besides, in assay [3], the “Oxygen consumption rate (OCR) of GL cells” value is recorded as “immediate reduction of the OCR”.

By IC50 is commonly meant the concentration that gives 50% inhibition.

For the origin of these results see article PMC9388906, “Dual inhibition of the Echinococcus multilocularis energy metabolism” (Frontiers in Veterinary Science, 2022).
